Measured values: patent EP0313981A2, “3-(4-Chlorphenyl)-2,2-dimethyl-3-hydroxy-4-(1,2,4-triazol-1-yl)-butyronitril” (BAYER AG, priority 1987, dated 1989)
Converted amounts (≈) assume the structure as drawn.

Experiments:
Asper-gillus fumi-gatus = test: Antifungal in vitro activity (MIC), Kimmig medium; format: cell-based; conditions: Aspergillus fumigatus, inoculum 5 x 10³ Keime/ml, 28 °C, 96 h, read-out: MHK-Werte (minimale Hemmkonzentration)
Procedure: (§1) Die in-vitro-Prüfungen wurden mit Keiminokula von durchschnittlich 5 x 10³ Keimen/ml Substrat durchgeführt. Als Nährmedium diente Kimmig-Medium.
(§2) Die Bebrütungstemperatur betrug 28 °C, die Bebrütungsdauer lag bei 24 bis 96 Stunden bei Hefen und 96 Stunden bei Dermatophyten und Schimmelpilzen.

Micro-sporum canis = test: Antifungal in vitro activity (MIC), Kimmig medium; format: cell-based; conditions: Microsporum canis, inoculum 5 x 10³ Keime/ml, 28 °C, 96 h, read-out: MHK-Werte (minimale Hemmkonzentration)
Procedure: as §1, §2

Tricho-phyton mentagr. = test: Antifungal in vitro activity (MIC), Kimmig medium; format: cell-based; conditions: Trichophyton mentagrophytes, inoculum 5 x 10³ Keime/ml, 28 °C, 96 h, read-out: MHK-Werte (minimale Hemmkonzentration)
Procedure: as §1, §2

[1] = test system: Candida albi-cans und sp.; test: Antifungal in vitro activity (MIC), Kimmig medium; format: cell-based, Candida albicans; conditions: inoculum 5 x 10³ Keime/ml, 28 °C, 24 to 96 h, read-out: MHK-Werte (minimale Hemmkonzentration)
Procedure: as §1, §2

Toru-lopsis gla-brata = test: Antifungal in vitro activity (MIC), Kimmig medium; format: cell-based, Torulopsis glabrata; conditions: Nakaseomyces glabratus, inoculum 5 x 10³ Keime/ml, 28 °C, 24 to 96 h, read-out: MHK-Werte (minimale Hemmkonzentration)
Procedure: as §1, §2

Candida-Zellen = test: Antifungal in vivo activity (oral) in mouse candidiasis; parameters: species or system Mäuse vom Typ SPF-CF₁; conditions: 2 x 5,0 mg/kg per day for 5 days; for Wirkung: mice infected i.v. with 1 x 10⁶ Candida cells, survivors on day 6 p.i.; for Wirkung (in words): mouse candidiasis
Procedure: Mäuse vom Typ SPF-CF₁ werden intravenös mit 1 x 10⁶ logarithmisch wachsenden Candida-Zellen, die in physiologischer Kochsalzlösung suspendiert wurden, infiziert, Gleichzeitig mit der Infektion werden die Tiere mit jeweils 5,0 mg/kg Körpergewicht der Präparate oral behandelt.
Die Behandlung wird 5 Tage fortgesetzt; die Tagesdosis beträgt jeweils 2 mal 5,0 mg/kg Körpergewicht.
Unbehandelte Tiere sterben 3 bis 6 Tage post infektionem. Die Überlebensrate am 6.Tag post infektionem beträgt bei unbehandelten Kontrolltieren etwa 5 %.

[2] = test system: Trichophyton mentagrophytes; test: Antimicrobial in vivo activity (oral) in experimental guinea pig trichophytosis; parameters: species or system Meerschweinchen der Rasse Pirbright-white; key to Wirkung: +++++: = sehr gute Wirkung = keine Infektionszeichen am 12. bis 15. Tag p.i.; ++++: = gute Wirkung = geringe Rötung, vereinzelt Schuppen; +++: = Wirkung = Rötung, Schuppen ohne Haarausfall; ++: = schwache Wirkung = Rötung, Schuppen, Haaraus-fall; +: = Spurwirkung = flächiger Haarausfall, entzündliche Hautreaktion; k.w.: = keine Wirkung = kein Unterschied zur unbehandelten Kontrolle; conditions: 1 x 2,5 mg/kg per day for 10 days; for Wirkung (in words): guinea pig trichophytosis; for Wirkung: guinea pigs infected on the back with Trichophyton mentagrophytes, signs of infection day 12 to 15 p.i.
Procedure: Weiße Meerschweinchen der Rasse Pirbright-white werden auf dem geschorenen, nicht skarifizierten Rücken mit einer Mikro- und Makrokonidien-Suspension von Trichophyton mentagrophytes infiziert.
Die infizierten Tiere werden beginnend mit dem Tag der Infektion 1 x täglich mit 2,5 mg/kg Körpergewicht der Präparate oral behandelt. Die Behandlung wird 10 Tage fortgesetzt; die Tagesdosis beträgt jeweils 1 mal 2,5 mg/kg Körpergewicht.
Bei unbehandelten Tieren entwickelt sich innerhalb von 12 Tagen p.i. das typische Bild einer Dermatophytose mit Rötung, Schuppung und Haarausfall bis zum totalen Integument-Defekt an der Infektionsstelle.

## CC(C#N)C(O)(Cn1cncn1)c1ccc(Cl)cc1 (stereo not drawn) [(A), 3-(4-Chlorphenyl)-3-hydroxy-2-methyl-4-(1,2,4-triazol-1-yl)-butyronitril]
Asper-gillus fumi-gatus
  MIC: 64 µg/mL (≈ 231 µM)
Micro-sporum canis
  MIC: 32 µg/mL (≈ 116 µM)
Tricho-phyton mentagr.
  MIC: 32 µg/mL (≈ 116 µM)
[1]
  MIC: 16 to 32 µg/mL (≈ 57.8 to 116 µM)
Toru-lopsis gla-brata
  MIC: 64 µg/mL (≈ 231 µM)
Candida-Zellen
  Wirkung: k.w.
  Wirkung (in words): keine Wirkung
[2]
  Wirkung (in words): keine Wirkung
  Wirkung: k.w.

## CC(C)(C#N)C(O)(Cn1cncn1)c1ccc(Cl)cc1 (stereo not drawn) [(I), 3-(4-Chlorphenyl)-2,2-dimethyl-3-hydroxy-4-(1,2,4-triazol-1-yl)-butyronitril]
Asper-gillus fumi-gatus
  MIC: 64 µg/mL (≈ 220 µM)
Micro-sporum canis
  MIC: 4 to 8 µg/mL (≈ 13.8 to 27.5 µM)
Tricho-phyton mentagr.
  MIC: 4 to 8 µg/mL (≈ 13.8 to 27.5 µM)
[1]
  MIC: 4 to 8 µg/mL (≈ 13.8 to 27.5 µM)
Toru-lopsis gla-brata
  MIC: 32 to 64 µg/mL (≈ 110 to 220 µM)
Candida-Zellen
  Wirkung: ++++ (= gute Wirkung = 80 % Überlebende am 6.Tag.p.i.)
  Wirkung (in words): gute Wirkung
[2]
  Wirkung (in words): gute Wirkung
  Wirkung: ++++
